Measurements from patent US9278932B1, “Process for preparation of 2-chloro-N-(4-chloro-3-pyridin-2-ylphenyl)-4-methylsulfonylbenzamide solid forms” (SHILPA MEDICARE LIMITED, priority 2013, dated 2016).

How the values were obtained:
[1] = crystalline free base; cited from earlier work
[2] = storage and handling stability of the solid form; type: physicochemical

| Structure (SMILES) | solubility [1] | stability on handling and storage (morphology and physicochemical characteristics) ([2]; solid crystalline form, stored for longer time) | time stable to handle and store without any significant or measurable change in morphology and physicochemical characteristics ([2]; solid crystalline material after drying, storage) |
| --- | --- | --- | --- |
| CS(=O)(=O)c1ccc(C(=O)Nc2ccc(Cl)c(-c3ccccn3)c2)c(Cl)c1 [Vismodegib] | pH dependent solubility | – | – |
| CS(=O)(=O)c1ccc(C(=O)Nc2ccc(Cl)c(-c3ccccn3)c2)c(Cl)c1 [Form-SV, 2-Chloro-N-(4-chloro-3-pyridin-2-ylphenyl)-4-methylsulfonylbenzamide] | – | quite stable | more than 6 months |
